Laboratory results published in ChEMBL document CHEMBL3885861, “Open TG-GATES”.

Species: Rattus norvegicus
Assay: Open TG-GATES - Regimen: Single
Type: toxicity, organism-based, Sprague-Dawley
Set-up: regimen Single, gender Male, age 6 weeks
Conditions: in vivo, po, route gavage; for APTT / Bas / Eos / Fbg / Hb / Ht / MCH / MCHC / MCV / Mono / PT / Plat / RBC / Ret / WBC: tissue Blood; for ALT / CRE / DBIL / GLC / IP / K / LDH / Na / PL / RALB / TBIL / TC / TG / TP / gamma-GTP / ALP: tissue Plasma
[1] = 200 mg/kg, 3 h, dose level Middle
[2] = 200 mg/kg, 6 h, dose level Middle
[3] = 200 mg/kg, 9 h, dose level Middle
[4] = 200 mg/kg, 24 h, dose level Middle
[5] = 600 mg/kg, 3 h, dose level High
[6] = 600 mg/kg, 6 h, dose level High
[7] = 600 mg/kg, 9 h, dose level High
[8] = 600 mg/kg, 24 h, dose level High

CCN(CC)C(=S)SSC(=S)N(CC)CC
TERMINAL_BW [1]: 213.2 g | APTT [1]: 21.8 s | Bas [1]: 0% | Eos [1]: 0.8% | Fbg [1]: 313.2 mg/dL | Hb [1]: 13.4 g/dL | Ht [1]: 41.1% | MCH [1]: 20.2 pg | MCHC [1]: 32.6% | MCV [1]: 62.1 fL | Mono [1]: 4.2% | PT [1]: 16.2 s | Plat [1]: 124 x10_4/uL | RBC [1]: 662.4 x10_4/ul | Ret [1]: 7.4% | WBC [1]: 77.1 x10_2/uL | ALT [1]: 40.6 IU/L | CRE [1]: 0.1 mg/dL | DBIL [1]: 0 mg/dL | GLC [1]: 181.2 mg/dL | IP [1]: 9.4 mg/dL | K [1]: 4.1 meq/L | LDH [1]: 215.4 IU/L | Na [1]: 142 meq/L | PL [1]: 147.8 mg/dL | RALB [1]: 3.2 g/dL | TBIL [1]: 0.004 mg/dL | TC [1]: 80.8 mg/dL | TG [1]: 84.2 mg/dL | TP [1]: 5.7 g/dL | gamma-GTP [1]: 1 IU/L | TERMINAL_BW [2]: 210.4 g | APTT [2]: 22.1 s | Bas [2]: 0% | Eos [2]: 0.4% | Fbg [2]: 299.4 mg/dL | Hb [2]: 13 g/dL | Ht [2]: 40.2% | MCH [2]: 20.2 pg | MCHC [2]: 32.3% | MCV [2]: 62.4 fL | Mono [2]: 2.2% | PT [2]: 15.9 s | Plat [2]: 123.4 x10_4/uL | RBC [2]: 644.6 x10_4/ul | Ret [2]: 7.2% | WBC [2]: 67.3 x10_2/uL | ALP [2]: 1309.6 IU/L | ALT [2]: 37.2 IU/L | CRE [2]: 0.1 mg/dL | DBIL [2]: 0.004 mg/dL | GLC [2]: 194 mg/dL | IP [2]: 9.6 mg/dL | K [2]: 4.1 meq/L | LDH [2]: 192 IU/L | Na [2]: 141 meq/L | PL [2]: 125.4 mg/dL | RALB [2]: 3.1 g/dL | TBIL [2]: 0.012 mg/dL | TC [2]: 73.2 mg/dL | TG [2]: 33 mg/dL | TP [2]: 5.4 g/dL | gamma-GTP [2]: 0.8 IU/L | TERMINAL_BW [3]: 213.7 g | APTT [3]: 22.8 s | Bas [3]: 0% | Eos [3]: 0.6% | Fbg [3]: 297 mg/dL | Hb [3]: 13.1 g/dL | Ht [3]: 40.6% | MCH [3]: 20 pg | MCHC [3]: 32.3% | MCV [3]: 61.8 fL | Mono [3]: 2% | PT [3]: 15.9 s | Plat [3]: 119.2 x10_4/uL | RBC [3]: 659 x10_4/ul | Ret [3]: 7.8% | WBC [3]: 81.1 x10_2/uL | ALP [3]: 1366 IU/L | ALT [3]: 34.6 IU/L | CRE [3]: 0.1 mg/dL | DBIL [3]: 0.012 mg/dL | GLC [3]: 195 mg/dL | IP [3]: 9.1 mg/dL | K [3]: 4.1 meq/L | LDH [3]: 141.2 IU/L | Na [3]: 140.6 meq/L | PL [3]: 137.8 mg/dL | RALB [3]: 3.2 g/dL | TBIL [3]: 0.02 mg/dL | TC [3]: 80.4 mg/dL | TG [3]: 46.8 mg/dL | TP [3]: 5.5 g/dL | gamma-GTP [3]: 0.8 IU/L | TERMINAL_BW [4]: 216 g | APTT [4]: 22 s | Bas [4]: 0% | Eos [4]: 0.4% | Fbg [4]: 301.2 mg/dL | Hb [4]: 13 g/dL | Ht [4]: 39.9% | MCH [4]: 20 pg | MCHC [4]: 32.5% | MCV [4]: 61.6 fL | Mono [4]: 2.4% | PT [4]: 16.6 s | Plat [4]: 111.9 x10_4/uL | RBC [4]: 649.2 x10_4/ul | Ret [4]: 6.6% | WBC [4]: 91.8 x10_2/uL | ALP [4]: 1198.6 IU/L | ALT [4]: 38.4 IU/L | CRE [4]: 0.1 mg/dL | DBIL [4]: 0.004 mg/dL | GLC [4]: 170 mg/dL | IP [4]: 7 mg/dL | K [4]: 4.1 meq/L | LDH [4]: 160.6 IU/L | Na [4]: 142.2 meq/L | PL [4]: 131.6 mg/dL | RALB [4]: 2.9 g/dL | TBIL [4]: 0.012 mg/dL | TC [4]: 80.8 mg/dL | TG [4]: 83 mg/dL | TP [4]: 5.3 g/dL | gamma-GTP [4]: 1.2 IU/L | TERMINAL_BW [5]: 218 g | APTT [5]: 21.3 s | Bas [5]: 0% | Eos [5]: 0.8% | Fbg [5]: 293.2 mg/dL | Hb [5]: 13.4 g/dL | Ht [5]: 41.4% | MCH [5]: 20 pg | MCHC [5]: 32.4% | MCV [5]: 61.6 fL | Mono [5]: 4.2% | PT [5]: 16.2 s | Plat [5]: 126.4 x10_4/uL | RBC [5]: 674 x10_4/ul | Ret [5]: 7.9% | WBC [5]: 82 x10_2/uL | ALP [5]: 1358.2 IU/L | ALT [5]: 45.8 IU/L | CRE [5]: 0.1 mg/dL | DBIL [5]: 0.01 mg/dL | GLC [5]: 194.8 mg/dL | IP [5]: 10.1 mg/dL | K [5]: 4 meq/L | LDH [5]: 250.2 IU/L | Na [5]: 141.4 meq/L | PL [5]: 132 mg/dL | RALB [5]: 3.1 g/dL | TBIL [5]: 0.008 mg/dL | TC [5]: 76.6 mg/dL | TG [5]: 57.8 mg/dL | TP [5]: 5.6 g/dL | gamma-GTP [5]: 1 IU/L | TERMINAL_BW [6]: 211.8 g | APTT [6]: 23.9 s | Bas [6]: 0% | Eos [6]: 0.8% | Fbg [6]: 304 mg/dL | Hb [6]: 13.7 g/dL | Ht [6]: 42.2% | MCH [6]: 20.5 pg | MCHC [6]: 32.4% | MCV [6]: 63.2 fL | Mono [6]: 2.4% | PT [6]: 16.3 s | Plat [6]: 117.9 x10_4/uL | RBC [6]: 668.2 x10_4/ul | Ret [6]: 7.1% | WBC [6]: 73.5 x10_2/uL | ALP [6]: 1429.6 IU/L | ALT [6]: 37.6 IU/L | CRE [6]: 0.1 mg/dL | DBIL [6]: 0.01 mg/dL | GLC [6]: 207.2 mg/dL | IP [6]: 9.7 mg/dL | K [6]: 4.3 meq/L | LDH [6]: 182.6 IU/L | Na [6]: 140.6 meq/L | PL [6]: 134.2 mg/dL | RALB [6]: 3.1 g/dL | TBIL [6]: 0.014 mg/dL | TC [6]: 80.8 mg/dL | TG [6]: 23.4 mg/dL | TP [6]: 5.5 g/dL | gamma-GTP [6]: 1.2 IU/L | TERMINAL_BW [7]: 206.5 g | APTT [7]: 23.7 s | Bas [7]: 0.2% | Eos [7]: 0.6% | Fbg [7]: 299 mg/dL | Hb [7]: 13.3 g/dL | Ht [7]: 40.6% | MCH [7]: 20.7 pg | MCHC [7]: 32.8% | MCV [7]: 63.2 fL | Mono [7]: 2.2% | PT [7]: 16.2 s | Plat [7]: 119.4 x10_4/uL | RBC [7]: 642.4 x10_4/ul | Ret [7]: 7.3% | WBC [7]: 77.1 x10_2/uL | ALP [7]: 1243.4 IU/L | ALT [7]: 36.6 IU/L | CRE [7]: 0.1 mg/dL | DBIL [7]: 0.014 mg/dL | GLC [7]: 200.4 mg/dL | IP [7]: 8.9 mg/dL | K [7]: 4.2 meq/L | LDH [7]: 184 IU/L | Na [7]: 140.6 meq/L | PL [7]: 136 mg/dL | RALB [7]: 3.2 g/dL | TBIL [7]: 0.02 mg/dL | TC [7]: 79.2 mg/dL | TG [7]: 57.4 mg/dL | TP [7]: 5.6 g/dL | gamma-GTP [7]: 1 IU/L | TERMINAL_BW [8]: 222.1 g | APTT [8]: 21.6 s | Bas [8]: 0% | Eos [8]: 0.8% | Fbg [8]: 290.2 mg/dL | Hb [8]: 12.7 g/dL | Ht [8]: 39% | MCH [8]: 19.5 pg | MCHC [8]: 32.4% | MCV [8]: 60.1 fL | Mono [8]: 2.2% | PT [8]: 16 s | Plat [8]: 115.3 x10_4/uL | RBC [8]: 649.8 x10_4/ul | Ret [8]: 6.8% | WBC [8]: 94.6 x10_2/uL | ALP [8]: 1144.8 IU/L | ALT [8]: 40.2 IU/L | CRE [8]: 0.1 mg/dL | DBIL [8]: 0.014 mg/dL | GLC [8]: 177.8 mg/dL | IP [8]: 7.7 mg/dL | K [8]: 3.9 meq/L | LDH [8]: 183.4 IU/L | Na [8]: 142.4 meq/L | PL [8]: 149.4 mg/dL | RALB [8]: 3.1 g/dL | TBIL [8]: 0.024 mg/dL | TC [8]: 91 mg/dL | TG [8]: 92.6 mg/dL | TP [8]: 5.5 g/dL | gamma-GTP [8]: 1 IU/L
